± gives the expanded uncertainty stated by the source.

For the series the following is noted: Crystal; DTA.

For the compound `Nc1ccc2[nH]c3ccc(N)cc3c2c1` [3,6-diamino-9H-carbazole], the Normal melting temperature worked out at 241.00 ± 10 °C.
With `O=[N+]([O-])c1ccc2[nH]c3ccc([N+](=O)[O-])cc3c2c1` [3,6-dinitro-9H-carbazole], the Normal melting temperature was 296.50 ± 10 °C.

These data come from the NIST ThermoML archive (doi:10.1016/j.tca.2005.05.013).
